Experimental data taken from patent US10414740B2, “Glutaminase inhibitors and method of use” (Agios Pharmaceuticals, Inc., priority 2012, dated 2019).

target: T1, glutaminase (GAC) (Homo sapiens, UniProt O94925); test: glutaminase coupled endpoint assay (Example A); type: biochemical; conditions: inhibition of glutaminase; IC50 tested in an assay of Example A or Example B
T1 sequence (O94925 55-598 isoform O94925-3 limits assumed): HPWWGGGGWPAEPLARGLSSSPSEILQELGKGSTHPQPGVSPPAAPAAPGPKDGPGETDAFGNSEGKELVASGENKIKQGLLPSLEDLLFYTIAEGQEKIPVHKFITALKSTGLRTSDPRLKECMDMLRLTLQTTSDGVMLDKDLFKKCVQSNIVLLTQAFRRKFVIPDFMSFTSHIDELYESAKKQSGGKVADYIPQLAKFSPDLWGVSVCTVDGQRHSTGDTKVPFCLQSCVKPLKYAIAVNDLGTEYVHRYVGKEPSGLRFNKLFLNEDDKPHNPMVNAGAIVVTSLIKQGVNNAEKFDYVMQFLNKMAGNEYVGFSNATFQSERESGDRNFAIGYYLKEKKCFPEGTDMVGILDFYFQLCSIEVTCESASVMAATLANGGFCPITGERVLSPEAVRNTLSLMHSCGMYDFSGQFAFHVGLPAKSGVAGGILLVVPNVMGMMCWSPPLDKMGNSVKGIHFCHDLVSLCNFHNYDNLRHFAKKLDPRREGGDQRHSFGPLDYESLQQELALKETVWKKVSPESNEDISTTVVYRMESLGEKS
Description: In this example, the enzymatic activity of glutaminase is measured through a coupled endpoint assay. […] The glutamate produced is converted to 2-OG by a kinetic excess of glutamate dehydrogenase. […] However, a kinetic excess of the third coupling enzyme, diaphorase, recycles NAD from NADH to keep the NAD concentration constant during the timecourse of the assay. Diaphorase, also supplied in kinetic excess, oxidizes NADH produced by GDH back to NAD with the concomitant reduction of rezasurin to the highly fluorescent resorufin. […] A reduction in the signal indicates inhibition of some component of the coupled enzyme system. Prospective hits are counterscreened against GDH/diaphorase alone to remove hits to the coupling enzyme system in a second assay.
2. […] Add 1 μl a compound in 100% DMSO 2. Add 40 μl of Enzyme Mix and incubate for 60 minute at room temperature 3. Add 10 μl of Substrate Mix to start reaction 4.

SMILES	IC50 [nM]
O=C(Nc1nnc(CCCCc2nnc(NC(=O)C3CCC3)s2)s1)C1CCC1 [Compound 102, N,N′-(5,5′-(butane-1,4-diyl)bis(1,3,4-thiadiazole-5,2-diyl))dicyclobutanecarboxamide]	500 to 1000
CCOC(=O)CCCC(=O)Nc1nnc(CCCCc2nnc(NC(=O)CCCC(=O)OCC)s2)s1 [Compound 76, Diethyl 5,5′-(5,5′-(butane-1,4-diyl)bis(1,3,4-thiadiazole-5,2-diyl))bis(azanediyl)bis(5-oxopentanoate)]	100 to 500
O=C(Cc1c[nH]c2ccncc12)Nc1nnc(CCCCc2nnc(NC(=O)Cc3c[nH]c4ccncc34)s2)s1 [Compound 124, N,N′-(5,5′-(butane-1,4-diyl)bis(1,3,4-thiadiazole-5,2-diyl))bis(2-(1H-pyrrolo[3,2-c]pyridin-3-yl)acetamide)]	< 100
CCOC(=O)CCC(=O)Nc1nnc(CCCCc2nnc(NC(=O)CCC(=O)OCC)s2)s1 [Compound 66, Diethyl 4,4′-(5,5′-(butane-1,4-diyl)bis(1,3,4-thiadiazole-5,2-diyl))bis(azanediyl)bis(4-oxobutanoate)]	100 to 500
Nc1nnc(CCCCc2nnc(NC(=O)CCc3ccccc3O)s2)s1 [Compound 44]	1000 to 10000
CC(=O)CCCCC(=O)Nc1nnc(CCCCc2nnc(NC(=O)CCCCC(C)=O)s2)s1 [Compound 72, N,N′-(5,5′-(butane-1,4-diyl)bis(1,3,4-thiadiazole-5,2-diyl))bis(6-oxoheptanamide)]	100 to 500
CC(=O)Nc1nnc(CCCCc2nnc(NC(C)=O)s2)s1 [Compound 94, N,N′-(5,5′-(butane-1,4-diyl)bis(1,3,4-thiadiazole-5,2-diyl))diacetamide]	500 to 1000
COc1cc(CCC(=O)Nc2nnc(CCCCc3nnc(NC(=O)CCc4cc(OC)c(OC)c(OC)c4)s3)s2)cc(OC)c1OC [Compound 101, N,N′-(5,5′-(butane-1,4-diyl)bis(1,3,4-thiadiazole-5,2-diyl))bis(3-(3,4,5-trimethoxyphenyl)propanamide)]	500 to 1000
c1ccc(CCNc2nnc(CCSCCc3nnc(NCCc4ccccc4)s3)s2)cc1 [Compound 9, 5,5′-(thiobis(ethane-2,1-diyl))bis(N-phenethyl-1,3,4-thiadiazol-2-amine)]	1000 to 10000
O=C(Cc1ccccc1)Nc1cc(CCCCc2cc(NC(=O)Cc3ccccc3)on2)no1 [Compound 99]	1000 to 10000
O=C(Nc1nnc(CCCCc2nnc(NC(=O)C3CC=CC3)s2)s1)C1CC=CC1 [Compound 64, N,N′-(5,5′-(butane-1,4-diyl)bis(1,3,4-thiadiazole-5,2-diyl))dicyclopent-3-enecarboxamide]	100 to 500
O=C(Nc1nnc(CCCCc2nnc(NC(=O)C3CC3)s2)s1)C1CC1 [Compound 105]	1000 to 10000

More lines, now with the values ahead:

IC50 [nM]	SMILES
100 to 500	O=C(C/C=C/c1ccccc1)Nc1nnc(CCCCc2nnc(NC(=O)C/C=C/c3ccccc3)s2)s1 [Compound 81, (3E,3′E)-N,N′-(5,5′-(butane-1,4-diyl)bis(1,3,4-thiadiazole-5,2-diyl))bis(4-phenylbut-3-enamide)]
1000 to 10000	O=C(Cc1ccccc1)Nc1nnc(CC[S+]([O-])CCC(=O)Nc2nnc(Cc3ccccc3)s2)s1 (stereo not drawn) [Compound 24]
1000 to 10000	O=C(Nc1nnc(CCCCc2nnc(NC(=O)C3(c4ccccc4)CC3)s2)s1)C1(c2ccccc2)CC1 [Compound 84]
1000 to 10000	O=C(Cc1ccccn1)Nc1nnc(CCC(O)CCc2nnc(NC(=O)Cc3ccccn3)s2)s1 [Compound 108]
100 to 500	O=C(Cc1cccnc1)Nc1nnc(CCCCCc2nnc(NC(=O)Cc3cccnc3)s2)s1 [Compound 10, N,N′-(5,5′-(pentane-1,5-diyl)bis(1,3,4-thiadiazole-5,2-diyl))bis(2-(pyridin-3-yl)acetamide)]
100 to 500	Cc1ccccc1CC(=O)Nc1nnc(CCCCc2nnc(NC(=O)Cc3ccccc3C)s2)s1 [Compound 114, N,N′-(5,5′-(butane-1,4-diyl)bis(1,3,4-thiadiazole-5,2-diyl))bis(2-o-tolylacetamide)]
